# Literature values, collected in patent US20240409577A1, “FORMATION OF AMIDINES AND INTRAMOLECULAR REACTION THEREOF” (priority 2023, published 2024).
# Details: acid used for the imidazolone transformation
compound,measurement,value
"OC(C(F)(F)F)C(F)(F)F [HFIP, hexafluoroisopropanol]",pKa,8.3
